Data from patent US20060205819A1, “Methods of treatment inflammatory bowel with lxr agonists” (priority 2003, published 2006).
Read-outs that look alike come from different tables or passages of the source. Marks after values point to notes of the source that are not given here.

Assays:
LXRβ protein = target: T1, LXRβ protein (Homo sapiens, UniProt P55055); assay: LXRβ / SRC-1 peptide fluorescence assay (streptavidin-APC / Europium); type: biochemical; details: 1 μM; over a background reading of 10000 fluorescence units
T1 sequence (P55055 1-460): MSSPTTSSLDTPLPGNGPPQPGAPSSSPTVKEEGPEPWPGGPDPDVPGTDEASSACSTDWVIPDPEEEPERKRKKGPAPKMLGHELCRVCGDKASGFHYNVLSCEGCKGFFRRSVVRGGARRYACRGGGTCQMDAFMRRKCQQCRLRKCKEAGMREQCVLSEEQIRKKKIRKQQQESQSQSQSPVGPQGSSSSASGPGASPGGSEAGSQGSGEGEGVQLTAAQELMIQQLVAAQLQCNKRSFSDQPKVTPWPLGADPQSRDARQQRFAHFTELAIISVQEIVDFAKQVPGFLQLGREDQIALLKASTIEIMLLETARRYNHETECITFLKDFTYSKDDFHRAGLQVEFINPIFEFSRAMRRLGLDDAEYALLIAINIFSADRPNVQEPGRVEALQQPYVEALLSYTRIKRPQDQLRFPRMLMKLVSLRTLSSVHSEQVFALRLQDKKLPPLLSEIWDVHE
Procedure: Other LXR agonists may be identified by assays such as those described in the above referenced patent applications, for example, the assays described in Examples 1 and 2 of PCT/US01/27622. Biotinylated LXRβ protein was incubated for 20-25 minutes at a concentration of 25 nM in assay buffer (50 mM KCl, 50 mM Tris-pH8, 0.1 mg/ml FAF-BSA, 10 mM DTT) with equimolar amounts of streptavidin-AlloPhycoCyanin (APC, Molecular Probes). At the same time, the biotinylated peptide comprising amino acids 675-699 of SRC-1 ([…]-CONH2) (SEQ ID NO: 5) at a concentration of 25 nM was incubated in assay buffer with a […] of streptavidin-labelled Europium (Wallac) for 20-25 minutes. After the initial incubations are completed, a 10 molar excess (250 nM) of cold biotin was added to each of the solutions to block the unattached streptavidin reagents. After 20 min at room temp, the solutions were mixed yielding a concentration of 12.5 nM for the dye-labelled LXRβ protein and SRC-1 peptide.
80 μL of the protein/peptide mixture was added to each well of an assay plate containing 20 μL of test compound. […] The plates were incubated at room temp in the dark for 4-12 hours and then counted on a Wallac Victor fluorescent plate reader. In this assay 1 μM 24(S), 25-epoxycholesterol gave a reading of 20000 fluorescence units over a background reading of 10000 fluorescence units. […]

DSS-induced colitis = DSS-induced colitis in mice, disease activity index (DAI) AUC; type: in vivo, BALB/c mice; details: for severity of DSS-induced colitis: p.o.; for AUC (0-12 day) / AUC (3-7 day) / AUC (7-10 day) / AUC (10-12 day): DAI curve AUC, 3% DSS mice, mean +/- SE; for inhibition at 3 mg/kg / inhibition at 10 mg/kg / inhibition at 30 mg/kg: Mus musculus, po, vs DSS + vehicle; for inhibition at 3 mg/kg: 3 mg/kg p.o. b.i.d.; for inhibition at 10 mg/kg: 10 mg/kg p.o. b.i.d.; for inhibition at 30 mg/kg: 30 mg/kg p.o. b.i.d.
Procedure: Female, 10-week-old BALB/c mice (Charles River Japan) were used in this study. Colitis was induced by providing drinking water containing 3% dextran sulfate sodium (DSS, ICN Biomedicals Inc., M.W.=36,000-50,000) for 5 days. The administration of DSS was discontinued on day 5, and mice were given tap water alone for 7 days until on day 12.
The disease activity index (DAI) was determined in all animals, by scoring body weight, stool consistency and rectal bleeding as described by Murthy, S. N. S. (Digestive Diseases and Sciences, 38(9) p. 1722-1734(1993)). Severity of colitis was evaluated by area under the curve (AUC) calculated based on DAI curve ranged from day 3 to day 7 (AUC (3-7 day)), from day 7 to day 10 (AUC (7-10 day)), from day 10 to day 12 (AUC (10-12 day)) and from day 0 to day 12 (AUC (0-12 day)).
Ten mice were used in each group. Compound IIa and Compound Ia were suspended in 0.5% methylcellulose (MC) solution. Compound IIa 3 or 10 or 30 mg/kg or its vehicle (0.5% MC solution) was administered orally twice a day for 12 days from day 0. Compound Ia at 50 mg/kg was administered orally once a day for 12 days from day 0. The experimental groups were set up as follows:
• 3% DSS+vehicle (0.5% MC solution) 3% DSS+Compound IIa (3 mg/kg) 3% DSS+Compound IIa (10 mg/kg) 3% DSS+Compound IIa (30 mg/kg) 3% DSS+Compound Ia (50 mg/kg) * Mice which received tap water without DSS.

[1] = read-out: Inhibition (%) of AUC (0-12 day)
[2] = read-out: Inhibition (%) of AUC (3-7 day)
[3] = read-out: Inhibition (%) of AUC (7-10 day)
[4] = read-out: Inhibition (%) of AUC (10-12 day)

Compound: C[C@H](CC[C@@H]1OC1(C)C)[C@H]1CC[C@H]2[C@@H]3CC=C4C[C@@H](O)CC[C@]4(C)[C@H]3CC[C@]12C [24(S), 25-epoxycholesterol]
- reading (LXRβ protein): 20000 fluorescence units

Compound: O=C(O)Cc1cccc(OCCCN(Cc2cccc(C(F)(F)F)c2Cl)CC(c2ccccc2)c2ccccc2)c1 [Compound IIa, 2-(3-{3-[[2-Chloro-3-(trifluoromethyl)benzyl](2,2-diphenylethyl)amino]propoxy}-phenyl)acetic acid]
- severity of DSS-induced colitis (DSS-induced colitis; 3, 10 and 30 mg/kg, b.i.d., significantly lower AUC compared with vehicle-treated DSS-fed mice): suppressed the severity of DSS-induced colitis
- AUC (0-12 day) (DSS-induced colitis; 3 mg/kg p.o. b.i.d. 12 days): 14.02 +/− 1.56
- AUC (3-7 day) (DSS-induced colitis; 3 mg/kg p.o. b.i.d. 12 days): 4.93 +/− 0.38**
- AUC (7-10 day) (DSS-induced colitis; 3 mg/kg p.o. b.i.d. 12 days): 5.05 +/− 0.75
- AUC (10-12 day) (DSS-induced colitis; 3 mg/kg p.o. b.i.d. 12 days): 2.73 +/− 0.55
- AUC (0-12 day) (DSS-induced colitis; 10 mg/kg p.o. b.i.d. 12 days): 11.25 +/− 1.42**
- AUC (3-7 day) (DSS-induced colitis; 10 mg/kg p.o. b.i.d. 12 days): 4.60 +/− 0.40**
- AUC (7-10 day) (DSS-induced colitis; 10 mg/kg p.o. b.i.d. 12 days): 3.70 +/− 0.62*
- AUC (10-12 day) (DSS-induced colitis; 10 mg/kg p.o. b.i.d. 12 days): 1.70 +/− 0.37
- AUC (0-12 day) (DSS-induced colitis; 30 mg/kg p.o. b.i.d. 12 days): 11.70 +/− 1.32*
- AUC (3-7 day) (DSS-induced colitis; 30 mg/kg p.o. b.i.d. 12 days): 4.70 +/− 0.36**
- AUC (7-10 day) (DSS-induced colitis; 30 mg/kg p.o. b.i.d. 12 days): 3.94 +/− 0.62
- AUC (10-12 day) (DSS-induced colitis; 30 mg/kg p.o. b.i.d. 12 days): 1.67 +/− 0.44
- inhibition at 3 mg/kg (DSS-induced colitis; [1]): 22%
- inhibition at 3 mg/kg (DSS-induced colitis; [2]): 28.2%
- inhibition at 3 mg/kg (DSS-induced colitis; [3]): 20.5%
- inhibition at 3 mg/kg (DSS-induced colitis; [4]): 14.7%
- inhibition at 10 mg/kg (DSS-induced colitis; [1]): 37.4%
- inhibition at 10 mg/kg (DSS-induced colitis; [2]): 33%
- inhibition at 10 mg/kg (DSS-induced colitis; [3]): 41.7%
- inhibition at 10 mg/kg (DSS-induced colitis; [4]): 46.9%
- inhibition at 30 mg/kg (DSS-induced colitis; [1]): 34.9%
- inhibition at 30 mg/kg (DSS-induced colitis; [2]): 31.6%
- inhibition at 30 mg/kg (DSS-induced colitis; [3]): 38%
- inhibition at 30 mg/kg (DSS-induced colitis; [4]): 47.8%

Compound: O=S(=O)(c1ccccc1)N(CC(F)(F)F)c1ccc(C(O)(C(F)(F)F)C(F)(F)F)cc1 [Compound Ia]
- severity of DSS-induced colitis (DSS-induced colitis; 50 mg/kg, q.d., significant lower AUC (3-7 day) and AUC (0-12 day) compared with vehicle-treated DSS-fed mice): inhibited the severity of DSS-induced colitis
- AUC (0-12 day) (DSS-induced colitis; 50 mg/kg p.o. q.d. 12 days): 12.33 +/− 1.40*
- AUC (3-7 day) (DSS-induced colitis; 50 mg/kg p.o. q.d. 12 days): 4.80 +/− 0.38**
- AUC (7-10 day) (DSS-induced colitis; 50 mg/kg p.o. q.d. 12 days): 4.25 +/− 0.72
- AUC (10-12 day) (DSS-induced colitis; 50 mg/kg p.o. q.d. 12 days): 1.98 +/− 0.45
